In PubChem BioAssay (NCI):
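The concentration for 50% growth inhibition is given as GI50. The concentration for full growth arrest is given as TGI.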

How the values were obtained:
Assay in all cases: growth of human tumour cells (NCI), 384-well format
786-0 renal = tested on: 786-0 renal
A498 renal = tested on: A498 renal
A549 NSCLC = tested on: A549 NSCLC
ACHN renal = tested on: ACHN renal
BT-549 breast = tested on: BT-549 breast
CAKI-1 renal = tested on: CAKI-1 renal
CCRF-CEM leukemia = tested on: CCRF-CEM leukemia
COLO 205 colon = tested on: COLO 205 colon
DU-145 prostate = tested on: DU-145 prostate
EKVX NSCLC = tested on: EKVX NSCLC
HCC-2998 colon = tested on: HCC-2998 colon
HCT-15 colon = tested on: HCT-15 colon
HL-60(TB) leukemia = tested on: HL-60(TB) leukemia
HOP-62 NSCLC = tested on: HOP-62 NSCLC
HOP-92 NSCLC = tested on: HOP-92 NSCLC
HS 578T breast = tested on: HS 578T breast
HT29 colon = tested on: HT29 colon
IGROV1 ovarian = tested on: IGROV1 ovarian
KM12 colon = tested on: KM12 colon
M14 melanoma = tested on: M14 melanoma
MALME-3M melanoma = tested on: MALME-3M melanoma
MCF7 breast = tested on: MCF7 breast
MDA-MB-231 breast = tested on: MDA-MB-231 breast
MDA-MB-435 melanoma = tested on: MDA-MB-435 melanoma
MDA-MB-468 breast = tested on: MDA-MB-468 breast
MOLT-4 leukemia = tested on: MOLT-4 leukemia
NCI-H226 lung = tested on: NCI-H226 lung
NCI-H23 lung = tested on: NCI-H23 lung
NCI-H322M lung = tested on: NCI-H322M lung
NCI-H460 NSCLC = tested on: NCI-H460 NSCLC
NCI-H522 lung = tested on: NCI-H522 lung
NCI/ADR-RES ovarian = tested on: NCI/ADR-RES ovarian
OVCAR-3 ovarian = tested on: OVCAR-3 ovarian
OVCAR-4 ovarian = tested on: OVCAR-4 ovarian
OVCAR-5 ovarian = tested on: OVCAR-5 ovarian
OVCAR-8 ovarian = tested on: OVCAR-8 ovarian
PC-3 prostate = tested on: PC-3 prostate
RPMI-8226 leukemia = tested on: RPMI-8226 leukemia
RXF 393 renal = tested on: RXF 393 renal
SF-268 CNS = tested on: SF-268 CNS
SF-295 CNS = tested on: SF-295 CNS
SF-539 CNS = tested on: SF-539 CNS
SK-MEL-2 melanoma = tested on: SK-MEL-2 melanoma
SK-MEL-28 melanoma = tested on: SK-MEL-28 melanoma
SK-MEL-5 melanoma = tested on: SK-MEL-5 melanoma
SK-OV-3 ovarian = tested on: SK-OV-3 ovarian
SN12C renal = tested on: SN12C renal
SNB-19 CNS = tested on: SNB-19 CNS
SNB-75 CNS = tested on: SNB-75 CNS
SR leukemia = tested on: SR leukemia
SW-620 colon = tested on: SW-620 colon
T-47D breast = tested on: T-47D breast
TK-10 renal = tested on: TK-10 renal
U251 glioblastoma = tested on: U251 glioblastoma
UACC-257 melanoma = tested on: UACC-257 melanoma
UACC-62 melanoma = tested on: UACC-62 melanoma

OCc1ccc(-c2nn(Cc3ccccc3)c3ccccc23)o1
GI50 (786-0 renal): 34.5 µM | TGI (786-0 renal): > 100 µM | GI50 (A498 renal): 0.024 µM | TGI (A498 renal): 0.0655 µM | GI50 (A549 NSCLC): 19.8 µM | TGI (A549 NSCLC): 44.9 µM | GI50 (ACHN renal): 35 µM | TGI (ACHN renal): 81.9 µM | GI50 (BT-549 breast): 17.4 µM | TGI (BT-549 breast): 31.5 µM | GI50 (CAKI-1 renal): 0.427 µM | TGI (CAKI-1 renal): 3.49 µM | GI50 (CCRF-CEM leukemia): 18 µM | TGI (CCRF-CEM leukemia): 32.3 µM | GI50 (COLO 205 colon): 18.6 µM | TGI (COLO 205 colon): 36.5 µM | GI50 (DU-145 prostate): 17.4 µM | TGI (DU-145 prostate): 32.8 µM | GI50 (EKVX NSCLC): 27.3 µM | TGI (EKVX NSCLC): 68.1 µM | GI50 (HCC-2998 colon): 20.1 µM | TGI (HCC-2998 colon): 34.9 µM | GI50 (HCT-15 colon): 23 µM | TGI (HCT-15 colon): 49.6 µM | GI50 (HL-60(TB) leukemia): 16.6 µM | TGI (HL-60(TB) leukemia): 30.4 µM | GI50 (HOP-62 NSCLC): 5.79 µM | TGI (HOP-62 NSCLC): 26.3 µM | GI50 (HOP-92 NSCLC): 16 µM | TGI (HOP-92 NSCLC): 30.8 µM | GI50 (HS 578T breast): 20.3 µM | TGI (HS 578T breast): 42.8 µM | GI50 (HT29 colon): 17.9 µM | TGI (HT29 colon): 32.3 µM | GI50 (IGROV1 ovarian): 0.424 µM | TGI (IGROV1 ovarian): 2.31 µM | GI50 (KM12 colon): 18.6 µM | TGI (KM12 colon): 34 µM | GI50 (M14 melanoma): 21.7 µM | TGI (M14 melanoma): 39.7 µM | GI50 (MALME-3M melanoma): 20.4 µM | TGI (MALME-3M melanoma): 36.4 µM | GI50 (MCF7 breast): 2.34 µM | TGI (MCF7 breast): > 100 µM | GI50 (MDA-MB-231 breast): 20.3 µM | TGI (MDA-MB-231 breast): 45.8 µM | GI50 (MDA-MB-435 melanoma): 20.8 µM | TGI (MDA-MB-435 melanoma): 38 µM | GI50 (MDA-MB-468 breast): 0.181 µM | TGI (MDA-MB-468 breast): 0.328 µM | GI50 (MOLT-4 leukemia): 12.1 µM | TGI (MOLT-4 leukemia): 24.7 µM | GI50 (NCI-H226 lung): 0.166 µM | TGI (NCI-H226 lung): 0.314 µM | GI50 (NCI-H23 lung): 25.3 µM | TGI (NCI-H23 lung): 53.1 µM | GI50 (NCI-H322M lung): 33 µM | TGI (NCI-H322M lung): > 100 µM | GI50 (NCI-H460 NSCLC): 16.4 µM | TGI (NCI-H460 NSCLC): 30.3 µM | GI50 (NCI-H522 lung): 14.6 µM | TGI (NCI-H522 lung): 28.2 µM | GI50 (NCI/ADR-RES ovarian): 21 µM | TGI (NCI/ADR-RES ovarian): 42.7 µM | GI50 (OVCAR-3 ovarian): 9.85 µM | TGI (OVCAR-3 ovarian): 21.9 µM | GI50 (OVCAR-4 ovarian): 23.5 µM | TGI (OVCAR-4 ovarian): 49 µM | GI50 (OVCAR-5 ovarian): 0.369 µM | TGI (OVCAR-5 ovarian): 5.99 µM | GI50 (OVCAR-8 ovarian): 23.5 µM | TGI (OVCAR-8 ovarian): 47 µM | GI50 (PC-3 prostate): 19.7 µM | TGI (PC-3 prostate): 37.3 µM | GI50 (RPMI-8226 leukemia): 9.64 µM | TGI (RPMI-8226 leukemia): 21.3 µM | GI50 (RXF 393 renal): 11.4 µM | TGI (RXF 393 renal): 27.5 µM | GI50 (SF-268 CNS): 29.8 µM | TGI (SF-268 CNS): 69.7 µM | GI50 (SF-295 CNS): 46.6 µM | TGI (SF-295 CNS): > 100 µM | GI50 (SF-539 CNS): 18.5 µM | TGI (SF-539 CNS): 34.6 µM | GI50 (SK-MEL-2 melanoma): 36.5 µM | TGI (SK-MEL-2 melanoma): 54.5 µM | GI50 (SK-MEL-28 melanoma): 24 µM | TGI (SK-MEL-28 melanoma): 41.4 µM | GI50 (SK-MEL-5 melanoma): 18.3 µM | TGI (SK-MEL-5 melanoma): 32.5 µM | GI50 (SK-OV-3 ovarian): 22.5 µM | TGI (SK-OV-3 ovarian): 41.4 µM | GI50 (SN12C renal): 50.1 µM | TGI (SN12C renal): > 100 µM | GI50 (SNB-19 CNS): 46.2 µM | TGI (SNB-19 CNS): > 100 µM | GI50 (SNB-75 CNS): 17.2 µM | TGI (SNB-75 CNS): 35.1 µM | GI50 (SR leukemia): 3.02 µM | TGI (SR leukemia): 7.56 µM | GI50 (SW-620 colon): 20.2 µM | TGI (SW-620 colon): 41.5 µM | GI50 (T-47D breast): 9.48 µM | TGI (T-47D breast): 34.1 µM | GI50 (TK-10 renal): 0.374 µM | TGI (TK-10 renal): 2.29 µM | GI50 (U251 glioblastoma): 13.3 µM | TGI (U251 glioblastoma): 28.1 µM | GI50 (UACC-257 melanoma): 1.49 µM | TGI (UACC-257 melanoma): 3.15 µM | GI50 (UACC-62 melanoma): 1.97 µM | TGI (UACC-62 melanoma): 31.4 µM
